According to patent publication US12213970B2, “Pyridinyl sulfonamide derivatives, pharmaceutical compositions and uses thereof” (Boehringer Ingelheim International GmbH, priority 2018, dated 2025):
Counter-ions that a name gives are not always drawn. Like-named read-outs stand apart in the source and are kept apart here.

Columns and labels:
AOC2 = target: T1, AOC2 (Homo sapiens, UniProt O75106); experiment: AOC2 biochemical assay (Amplex Red)
T1 construct: host or cells: HEK293 cells (transient transfection), cell homogenate
T1 sequence (O75106 1-756): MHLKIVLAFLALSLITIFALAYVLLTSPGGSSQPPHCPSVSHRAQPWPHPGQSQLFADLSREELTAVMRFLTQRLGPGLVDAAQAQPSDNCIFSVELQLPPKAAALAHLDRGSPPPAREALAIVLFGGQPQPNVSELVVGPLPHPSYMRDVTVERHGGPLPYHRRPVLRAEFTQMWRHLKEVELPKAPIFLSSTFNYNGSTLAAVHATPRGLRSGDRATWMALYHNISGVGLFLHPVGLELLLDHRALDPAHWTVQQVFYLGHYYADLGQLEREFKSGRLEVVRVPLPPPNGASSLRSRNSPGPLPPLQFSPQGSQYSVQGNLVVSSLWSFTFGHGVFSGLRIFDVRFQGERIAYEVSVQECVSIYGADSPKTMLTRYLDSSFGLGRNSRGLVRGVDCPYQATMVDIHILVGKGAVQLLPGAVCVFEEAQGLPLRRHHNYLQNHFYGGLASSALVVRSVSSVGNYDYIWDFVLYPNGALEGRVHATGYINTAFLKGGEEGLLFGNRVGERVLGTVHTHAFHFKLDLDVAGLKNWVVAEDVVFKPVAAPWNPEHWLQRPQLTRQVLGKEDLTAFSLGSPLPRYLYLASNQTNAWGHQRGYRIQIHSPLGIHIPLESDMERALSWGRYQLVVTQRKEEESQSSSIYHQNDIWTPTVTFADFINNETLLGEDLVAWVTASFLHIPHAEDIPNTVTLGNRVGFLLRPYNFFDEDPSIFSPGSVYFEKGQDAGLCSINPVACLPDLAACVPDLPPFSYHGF
Description: The Amplex® Red Assay (commercially available from Thermo Fisher Scientific) provides a sensitive method for the detection of H2O2 generated during enzymatic reactions like the amine oxidation catalyzed by AOC2. […] An aliquot of 5 μL of the compound dilution is added to a 96 well plate (flat bottom F, black, GREINER bio-one, #655900) in a DMSO concentration of 2%. […] Cells are cultured for 3 days in EMEM culture medium containing 10% FCS (#04-00-1A, Biological Industries). After washing twice with ice cold PBS, cells are lysed by mechanic homogenation and cleared supernatants are shock frozen in liquid nitrogen and stored at -80° C. For the determination of AOC2 enzymatic activity cell lysates are thawed on ice and 1:1 diluted with reaction buffer. An Aliquot of 45 μL is added to the compound dilution and incubated for 30 min at 37° C. The enzymatic reaction is started with the addition of 50 μL of Amplex® Red reaction mix (final assay concentration: 100 mM sodiumphosphate, 120 μM Amplex® Red reagent (#A22177 Molecular Probes), 1.5 U/mL Horseradish Peroxidase (#P8375 Sigma-Aldrich), 2 mM phenylethylamine (#[…] Sigma-Aldrich), 0.05% Pluronic F-127 (#P3000MP Sigma-Aldrich), pH 7.4, 37° C.). The turnover per time of the substrate is determined directly with a fluorescence reader (Ex 540 nm/Em 590 nm) like Envision 2104 Multilabel Reader (PERKIN ELMER) for 60 min. (cf. Anal Biochem (1997) 253:169-174; Anal Biochem (1997) 253:162-168)

MAO-A = target: T2, MAO-A (Homo sapiens, UniProt P21397); experiment: MAO-A biochemical assay (MAO-Glo)
T2 construct: purchased Sigma-Aldrich M7316
T2 sequence (P21397 1-527): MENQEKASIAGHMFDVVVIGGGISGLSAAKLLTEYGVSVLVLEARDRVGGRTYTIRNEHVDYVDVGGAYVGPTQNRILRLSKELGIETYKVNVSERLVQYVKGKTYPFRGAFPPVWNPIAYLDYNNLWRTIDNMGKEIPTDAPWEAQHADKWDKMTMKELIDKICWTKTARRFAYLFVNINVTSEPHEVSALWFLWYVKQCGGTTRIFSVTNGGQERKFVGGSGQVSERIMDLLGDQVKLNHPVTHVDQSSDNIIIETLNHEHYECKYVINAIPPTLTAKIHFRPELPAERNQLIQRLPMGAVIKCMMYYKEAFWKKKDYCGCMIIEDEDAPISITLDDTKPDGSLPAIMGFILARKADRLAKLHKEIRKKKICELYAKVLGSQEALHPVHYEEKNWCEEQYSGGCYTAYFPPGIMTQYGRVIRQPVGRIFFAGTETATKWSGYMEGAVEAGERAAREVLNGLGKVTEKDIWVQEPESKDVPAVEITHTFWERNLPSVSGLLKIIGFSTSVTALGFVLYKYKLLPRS
Excerpt: The MAO-Glo™ Assay (commercially available from PROMEGA, #V1402) provides a sensitive method for the measurement of monoamine oxidase (MAO) activity (Valley, M. P. et al., 2006, Anal. Biochem. 359: 238-246) from a variety of tissues, biofluids or recombinant expressed or purified enzymes. As substrate a derivate of the beetle luciferin ((4S)-4,5-dihydro-2-(6-hydroxybenzothiazolyl)-4-thiazole-carboxylic acid) is used, which is oxidized at a primary amine moiety. After a spontaneous elimination and a catalyzed esterase reaction, the turnover of luciferin by the luciferase is recorded as a signal of MAO-A activity.
An aliquot of 3 μL of the compound dilution is added to a 384 well plate (Optiplate, PS, flat bottom F, black, PERKIN ELMER, #6007270) in a DMSO concentration of 1.025%.
A MAO-A enzyme aliquot (M7316, Sigma-Aldrich) is thawed on ice, diluted in reaction buffer to 1.25 mU/μL and added in a volume of 5 μL to the wells. After incubation for 20 minutes at 37° C., 2 μL of MAO substrate (dissolved in DMSO at 16 mM, diluted to 20 μM in assay buffer to obtain a final assay concentration of 4 μM) is added, mixed, and the mixture further incubated for 60 minutes at 37° C.
The turnover of the substrate is determined by the addition of 10 μL of the Detection Reagent mix which was generated by the addition of reconstitution buffer with esterase (PROMEGA, #V1402) to the luciferin detection reagent (PROMEGA, #V1402). After an incubation period of 20 minutes at 37° C., the luminescent signal is measured with a […], e.g. Envision 2104 Multilabel Reader (PERKIN ELMER).

[1] = comparison table, read-out: IC50 MAO-A

Row | SMILES | IC50 (AOC2; read-out: AOC2 IC50) | IC50 (MAO-A; IC50, read-out: MAO-A) | other results
1 | COC1CN(S(=O)(=O)c2ccc(OC/C(=C\F)CN)cc2)C1 [Reference compound A, reference compound] | – | – | ratio IC50 AOC2/IC50 AOC3 (fold less active against AOC2 as compared to AOC3) (AOC2; AOC2 versus AOC3): 52 fold; IC50 (AOC2; comparison table, read-out: IC50 AOC2): 0.156 µM; IC50 (MAO-A; [1]): 2350 nM
2 | CC(=O)NC1CCN(S(=O)(=O)c2ccc(OC/C(=C\F)CN)nc2)C1 (stereo not shown) [Example 12] | 0.209 µM | > 50000 nM | –
3 | CN(C)C(=O)[C@H]1CCN(S(=O)(=O)c2ccc(OC/C(=C\F)CN)nc2)C1 [Example 4] | 0.394 µM | > 50000 nM | –
4 | NC/C(=C/F)COc1ccc(S(=O)(=O)N2CC[C@@H](C(N)=O)C2)cn1 [Example 31] | 0.04 µM | > 50000 nM | –
5 | CC(=O)N[C@@H]1CCCN(S(=O)(=O)c2ccc(OC/C(=C\F)CN)nc2)C1 [Example 24] | 0.072 µM | > 50000 nM | –
6 | CC(C)(O)CNC(=O)[C@H]1CCN(S(=O)(=O)c2ccc(OC/C(=C\F)CN)nc2)C1 [Example 2] | 0.272 µM | > 50000 nM | –
7 | NC/C(=C/F)COc1ccc(S(=O)(=O)N2C[C@H]3C[C@@]3(C(=O)N3CCOCC3)C2)cn1 [Example 22] | 0.093 µM | > 50000 nM | –
8 | NC/C(=C/F)COc1ccc(S(=O)(=O)N2CCC(C(=O)N3CCOCC3)CC2)cn1 [Example 3] | – | > 50000 nM | IC50 (AOC2; value in μM, read-out: AOC2 IC50): 23.4 µM
9 | CC(=O)NCC1CCN(S(=O)(=O)c2ccc(OC/C(=C\F)CN)nc2)CC1 [Example 28] | 0.059 µM | > 50000 nM | –
10 | NC/C(=C/F)COc1ccc(S(=O)(=O)N2CCC[C@H]2C(N)=O)cn1 [Example 13] | 0.205 µM | > 50000 nM | –
11 | CN1CCN(C2CCN(S(=O)(=O)c3ccc(OC/C(=C\F)CN)nc3)CC2)C1=O [Example 1, 1-{1-[6-((Z)-2-Aminomethyl-3-fluoro-allyloxy)-pyridine-3-sulfonyl]-piperidine-4-yl}-3-methyl-imidazolidin-2-one trifluoroacetate] | 0.12 µM | > 50000 nM | –
12 | CNC(=O)[C@@]12C[C@@H]1CN(S(=O)(=O)c1ccc(OC/C(=C\F)CN)nc1)C2 [Example 29] | 0.058 µM | > 50000 nM | –
13 | CN(C)C(=O)CC1CCN(S(=O)(=O)c2ccc(OC/C(=C\F)CN)nc2)CC1 [Example 19] | 0.13 µM | > 50000 nM | –
14 | CC(=O)N[C@H]1CCCN(S(=O)(=O)c2ccc(OC/C(=C\F)CN)nc2)C1 [Example 6] | 0.285 µM | > 50000 nM | –
15 | NC/C(=C/F)COc1ccc(S(=O)(=O)N2CCC(C(N)=O)CC2)cn1 [Example 7] | 0.272 µM | > 50000 nM | –
16 | NC/C(=C/F)COc1ccc(S(=O)(=O)N2CC(C3CCN(C(=O)C4CC4)CC3)C2)cn1 [Example 26] | 0.063 µM | > 50000 nM | –
17 | CN(C)C(=O)C1CN(S(=O)(=O)c2ccc(OC/C(=C\F)CN)nc2)C1 [Example 25] | 0.068 µM | > 50000 nM | –
18 | CNC(=O)[C@H]1CCN(S(=O)(=O)c2ccc(OC/C(=C\F)CN)nc2)C1 [Example 11] | 0.21 µM | > 50000 nM | –

More lines, main results first:

Row | IC50 (AOC2; read-out: AOC2 IC50) | IC50 (MAO-A; IC50, read-out: MAO-A) | SMILES | other results
19 | 0.073 µM | > 50000 nM | CC1(C(=O)NC2CCOCC2)CCN(S(=O)(=O)c2ccc(OC/C(=C\F)CN)nc2)CC1 [Example 48, 1-[6-((Z)-2-Aminomethyl-3-fluoro-allyloxy)-pyridine-3-sulfonyl]-4-methyl-piperidine-4-carboxylic acid (tetrahydropyran-4-yl)-amide trifluoroacetate] | –
20 | 0.016 µM | 29600 nM | NC/C(=C/F)COc1ccc(S(=O)(=O)N2CCC(CC(N)=O)CC2)cn1 [Example 50] | –
21 | 0.193 µM | > 50000 nM | CNC(=O)C1CCN(S(=O)(=O)c2ccc(OC/C(=C\F)CN)nc2)CC1 [Example 37, trifluoroacetate] | –
22 | – | 49100 nM | NC/C(=C/F)COc1ccc(S(=O)(=O)N2CC[C@H](O)C2)cn1 [Example 43, (S)-1-[6-(Z)-2-Aminomethyl-3-fluoro-allyloxy]-pyridine-3-sulfonyl]-pyrrolidin-3-ol trifluoroacetate] | IC50 (AOC2; read-out: IC50 AOC2): 0.21 µM; IC50 (MAO-A; [1]): 49100 nM
23 | 0.078 µM | 15200 nM | COC(=O)C1CCN(S(=O)(=O)c2ccc(OC/C(=C\F)CN)nc2)CC1 [Example 34] | –
24 | 0.045 µM | > 50000 nM | NC/C(=C/F)COc1ccc(S(=O)(=O)N2CCC(C(=O)O)CC2)cn1 [Example 46] | –
25 | 0.056 µM | > 50000 nM | NC/C(=C/F)COc1ccc(S(=O)(=O)N2CC[C@H](C(N)=O)C2)cn1 [Example 39] | –
